Read-outs that look alike come from different tables or passages of the source.
Tests used:
[1] = system: Nrf2 (Keap1-NRF2 nuclear translocation); assay: U2OS translocation assay (PathHunter U2OS Keap1-NRF2 Nuclear Translocation Cell Line); assay type: cell-based
Outline: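 PathHunter U2OS line expressing Nrf2-enzyme-donor fusion and nuclear acceptor enzyme, 7 500 cells/well in Opti-MEM, 1% FBS. Compounds incubated 3 h at 37° C. Luminescence after 60 min with detection reagent, normalized between 1% DMSO and 10 μM andrographolide.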

Keap1 (A321-C624) (h) = biological target: T1, Keap1 (A321-C624) (h) (Homo sapiens, UniProt Q14145); assay: Surface Plasmon Resonance binding assay to Kelch domain of KEAP1; details: Biacore T200, 25° C., immobilized His-Thromb-KEAP1(A321-C624), single cycle kinetics, KD=kd/ka from 1:1 fit; read-out: Keap1 (A321-C624) (h) direct/SPR (KD)
T1 construct: His-Thromb-KEAP1(A321-C624) acquired from Novalix (batch PU-P01) was immobilized covalently by amine coupling; His tag (N); thrombin cleavage site (Thromb) (N); purchased Novalix batch PU-P01
Outline: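 His-Thromb-KEAP1(A321-C624) amine-coupled on CM5 chip to 1250 RU; amine blank reference. Run at 25° C in HEPES pH 7.4, 150 mM NaCl, 3 mM EDTA, 1 mM TCEP, 0.05% P20, 5% DMSO; 180 s association, 720 s dissociation, 50 μL/min. KD = kd/ka from 1:1 kinetic fit, double-referenced, DMSO solvent-corrected.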

[2] = read-out: CELLULAR U2OS EC50, U2OS Keap1-NRF2 nuclear translocation cells, 3 h incubation, luminescence, normalized between 1% DMSO and 10 μM andrographolide
[3] = Homo sapiens, U2OS, 3 h, read-out: CELLULAR U2OS EC50 (nM), U2OS Keap1-NRF2 nuclear translocation cells, 3 h incubation, luminescence, normalized between 1% DMSO and 10 μM andrographolide

T1 sequence (Q14145 321-624): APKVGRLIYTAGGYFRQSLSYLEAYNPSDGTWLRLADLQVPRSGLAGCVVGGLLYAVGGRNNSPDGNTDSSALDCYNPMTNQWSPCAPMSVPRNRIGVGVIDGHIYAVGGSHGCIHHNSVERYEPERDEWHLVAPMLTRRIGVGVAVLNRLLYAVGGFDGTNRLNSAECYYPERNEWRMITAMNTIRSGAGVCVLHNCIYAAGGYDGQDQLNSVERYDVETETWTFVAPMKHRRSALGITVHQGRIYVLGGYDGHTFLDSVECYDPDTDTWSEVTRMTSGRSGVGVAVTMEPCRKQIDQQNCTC

Row | Compound | EC50 [1, 2] [nM] | Kd (Keap1 (A321-C624) (h)) [nM] | EC50 [1, 3] [nM]
1 | Cc1c2ccc3c1nnn3CCCCOc1ccc3c(c1)CN(Cc1cc(cc(C(F)(F)F)c1)C2CC(=O)O)S(=O)(=O)O3 (single isomer, unassigned) [Example 12b, [31-Methyl-27,27-dioxo-5-(trifluoromethyl)-21,26-dioxa-27λ^6-thia-1,14,15,16-tetraazahexacyclo[20.5.3.1^3,70.1^9,130.0^12,160.0^25,29]dotriaconta-3(32),4,6,9(31),10,12,14,22,24,29-decaen-8-yl]acetic acid] | > 3160 | 2920 | –
2 | Cc1ccc2cc1CN1Cc3cc(ccc3OS1(=O)=O)OCCCCCn1nnc3c(C)c(ccc31)C2CC(=O)O (single isomer, unassigned) [Example 1a, [4,32-dimethyl-28,28-dioxo-22,27-dioxa-28λ^6-thia-1,14,15,16-tetraazahexacyclo[21.5.3.1^3,70.1^9,130.0^12,160.0^26,30]tritriaconta-3(33),4,6,9(32),10,12,14,23,25,30-decaen-8-yl]acetic acid] | 10.1 | 0.181 | –
3 | Cc1c2ccc3c1nnn3CCCCOc1ccc3c(c1)CN(Cc1cccc(c1)C2CC(=O)O)S(=O)(=O)O3 (stereo not shown) [Example 6, [31-Methyl-27,27-dioxo-21,26-dioxa-27λ^6-thia-1,14,15,16-tetraazahexacyclo[20.5.3.1^3,70.1^9,130.0^12,160.0^25,29]dotriaconta-3(32),4,6,9(31),10,12,14,22,24,29-decaen-8-yl]acetic acid] | – | 33.7 | 1330
4 | Cc1ccc2cc1CN1Cc3cc(ccc3OS1(=O)=O)OCCCCCOc1cc(c(C)c3nnn(C)c13)C2CC(=O)O (single isomer, unassigned) [Example 73b, [4,10,14-Trimethyl-29,29-dioxo-17,23,28-trioxa-29λ^6-thia-1,12,13,14-tetraazahexacyclo[22.5.3.1^3,70.1^9,160.0^11,150.0^27,31]tetratriaconta-3(34),4,6,9(33),10,12,15,24,26,31-decaen-8-yl]acetic acid] | 707 | 17.6 | –
5 | COc1c(Cl)cc2cc1CN1Cc3cc(ccc3OS1(=O)=O)OCCCCn1nnc3c(C)c(ccc31)C2CC(=O)O (single isomer, unassigned) [Example 37b, [5-Chloro-4-methoxy-31-methyl-27,27-dioxo-21,26-dioxa-27λ^6-thia-1,14,15,16-tetraazahexacyclo[20.5.3.1^3,70.1^9,130.0^12,160.0^25,29]dotriaconta-3(32),4,6,9(31),10,12,14,22,24,29-decaen-8-yl]acetic acid] | > 3160 | 529 | –
6 | Cc1ccc2cc1[C@@H](C)N1Cc3cc(ccc3OS1(=O)=O)OCCCOCCn1nnc3c(C)c(ccc31)[C@H]2CC(=O)O [Example 27b, [(2R,8S)-2,4,33-trimethyl-29,29-dioxo-19,23,28-trioxa-29λ^6-thia-1,14,15,16-tetraazahexacyclo[22.5.3.1^3,70.1^9,130.0^12,160.0^27,31]tetratriaconta-3(34),4,6,9(33),10,12,14,24,26,31-decaen-8-yl]acetic acid] | – | 3.56 | 16.2
7 | Cc1ccc2cc1CN1Cc3cc(ccc3OS1(=O)=O)OCc1ccccc1CCn1nnc3c(C)c(ccc31)C2CC(=O)O (single isomer, unassigned) [Example 62a, [4,36-Dimethyl-32,32-dioxo-26,31-dioxa-32λ^6-thia-1,14,15,16-tetraazaheptacyclo[25.5.3.1^3,70.1^9,130.0^12,160.0^19,240.0^30,34]heptatriaconta-3(37),4,6,9(36),10,12,14,19,21,23,27,29,34-tridecaen-8-yl]acetic acid] | – | 3 | 177
8 | Cc1c(Cl)cc2cc1CN1Cc3cc(ccc3OS1(=O)=O)OCCCCn1nnc3c(C)c(ccc31)C2CC(=O)O (single isomer, unassigned) [Example 33a, [5-Chloro-4,31-dimethyl-27,27-dioxo-21,26-dioxa-27λ^6-thia-1,14,15,16-tetraazahexacyclo[20.5.3.1^3,70.1^9,130.0^12,160.0^25,29]dotriaconta-3(32),4,6,9(31),10,12,14,22,24,29-decaen-8-yl]acetic acid] | 94.5 | 4.55 | –
9 | Cc1ccc2cc1CN1Cc3cc(ccc3OS1(=O)=O)OCCCCCOc1cc(c(C)c3nnn(C)c13)C2CC(=O)O (single isomer, unassigned) [Example 73a, [4,10,14-Trimethyl-29,29-dioxo-17,23,28-trioxa-29λ^6-thia-1,12,13,14-tetraazahexacyclo[22.5.3.1^3,70.1^9,160.0^11,150.0^27,31]tetratriaconta-3(34),4,6,9(33),10,12,15,24,26,31-decaen-8-yl]acetic acid] | 63.4 | 6.23 | –
10 | COc1c(Cl)cc2cc1CN1Cc3cc(ccc3OS1(=O)=O)OCCCCn1nnc3c(C)c(ccc31)C2CC(=O)O (single isomer, unassigned) [Example 37a, [5-Chloro-4-methoxy-31-methyl-27,27-dioxo-21,26-dioxa-27λ^6-thia-1,14,15,16-tetraazahexacyclo[20.5.3.1^3,70.1^9,130.0^12,160.0^25,29]dotriaconta-3(32),4,6,9(31),10,12,14,22,24,29-decaen-8-yl]acetic acid] | 1300 | 75.1 | –
11 | Cc1ccc2cc1CN1Cc3cc(ccc3OS1(=O)=O)OCCN(c1ccccc1)CCn1nnc3c(C)c(ccc31)C2CC(=O)O (single isomer, unassigned) [Example 58b, [4,32-Dimethyl-28,28-dioxo-19-phenyl-22,27-dioxa-28λ^6-thia-1,14,15,16,19-pentaazahexacyclo[21.5.3.1^3,70.1^9,130.0^12,160.0^26,30]tritriaconta-3(33),4,6,9(32),10,12,14,23,25,30-decaen-8-yl]acetic acid] | 427 | 12.5 | –
12 | COc1cc2cc3c1OS(=O)(=O)N(Cc1cc(ccc1C)C(CC(=O)O)c1ccc4c(nnn4CCCCO2)c1C)C3 (single isomer, unassigned) [Example 16a, [24-Methoxy-4,31-dimethyl-27,27-dioxo-21,26-dioxa-27λ^6-thia-1,14,15,16-tetraazahexacyclo[20.5.3.1^3,70.1^9,130.0^12,160.0^25,29]dotriaconta-3(32),4,6,9(31),10,12,14,22,24,29-decaen-8-yl]acetic acid] | 871 | 4.03 | –
13 | COc1ccc2cc1CN1Cc3cc(ccc3OS1(=O)=O)OCc1ccccc1OCCCCn1nnc3c(C)c(ccc31)C2CC(=O)O (single isomer, unassigned) [Example 53b, [4-Methoxy-39-methyl-35,35-dioxo-21,29,34-trioxa-35λ^6-thia-1,14,15,16-tetraazaheptacyclo[28.5.3.1^3,70.1^9,130.0^12,160.0^22,270.0^33,37]tetraconta-3(40),4,6,9(39),10,12,14,22,24,26,30,32,37-tridecaen-8-yl]acetic acid] | 899 | 176 | –
14 | COc1cc2c3cc1OCCCCn1nnc4c(C)c(ccc41)C(CC(=O)O)c1ccc(C)c(c1)CN(C3)S(=O)(=O)O2 (single isomer, unassigned) [Example 25a, [23-Methoxy-4,31-dimethyl-27,27-dioxo-21,26-dioxa-27λ^6-thia-1,14,15,16-tetraazahexacyclo[20.5.3.1^3,70.1^9,130.0^12,160.0^25,29]dotriaconta-3(32),4,6,9(31),10,12,14,22,24,29-decaen-8-yl]acetic acid] | 14 | 0.562 | –

Reference: US12643912B2, “Macrocyclic compounds, a process for their preparation and pharmaceutical compositions containing them” (LES LABORATOIRES SERVIER, priority 2020, dated 2026)
